Assay type in all cases: cell-based
For one test, the system named is MRCS cells.
The subject of another test is 293T cells.
Test [1] has as its system A549 cells.
Test [2] concerns A549 cells. This is another data set of the same source.
Test [3] concerns A549 cells. The source holds these as a separate data set.

Consider “DRFFFKRIFRRFKFRLKRRPST [Jilin-2004(H5N1)-M2-44-65 mut12]”, for which the “cell-penetrating peptide function compared with the parent polypeptide” value in the test with MRCS cells, in the test on 293T cells and with A549 cells [1] was “stronger than that of the parent Jilin-2004(H5N1)-M2-44-65 polypeptide” in each case.

Take “DRFFFKRIYRRLKYRLKRRPKV [Jilin-2004(H5N1)-M2-44-65 mut9]”: the “cell-penetrating peptide function compared with the parent polypeptide” value in the test with MRCS cells, in the test with 293T cells and with A549 cells [1] was “stronger than that of the parent Jilin-2004(H5N1)-M2-44-65 polypeptide” throughout.

Take “DRLFFKCIYRRLKYGLKRRPST [Jilin-2004(H5N1)-M2-44-65 mut25]”: the “cell-penetrating peptide function compared with the parent polypeptide” value with MRCS cells, in the test with 293T cells and in the test on A549 cells [1] was “stronger than that of the parent Jilin-2004(H5N1)-M2-44-65 polypeptide” each time.

Regarding “DRLFFKCIYRRLKYRLKRRPST [Jilin-2004(H5N1)-M2-44-65 mut26]”, the “ability to carry small RNA into cells compared with the transfection reagent RNAiMax group, qPCR” value with A549 cells [2] is reported as “stronger than the transfection reagent RNAiMax group”. For the same sequence, the “cell-penetrating peptide function compared with the parent polypeptide” value in the test with 293T cells and in the test on A549 cells [1] was “stronger than that of the parent Jilin-2004(H5N1)-M2-44-65 polypeptide” throughout.

“DRLFFKRIYRRLKYRLKRRPST [Jilin-2004(H5N1)-M2-44-65 mut27]”: the “ability to carry small RNA into cells compared with the transfection reagent RNAiMax group, qPCR” value in the test with A549 cells [2] is on record as “stronger than the transfection reagent RNAiMax group”. For the same sequence, in the test with 293T cells, the “cell-penetrating peptide function compared with the parent polypeptide” value was “stronger than that of the parent Jilin-2004(H5N1)-M2-44-65 polypeptide”.

As to “RLFFRRIYRRLRYRLRRG [Jilin-2004(H5N1)-M2-45-62 mut5]”, the “cell-penetrating peptide function compared with the parent polypeptide (confocal imaging)” value in the test on A549 cells [3] is on record as “stronger than that of the parent Jilin-2004(H5N1)-M2-45-62 polypeptide”. Also, the “ability to carry small RNA into cells compared with the transfection reagent RNAiMax group, qPCR” value in the test on A549 cells [2] is on record as “stronger than the transfection reagent RNAiMax group”.

“RLFIKCIYRRLKYGLKRG [Jilin-2004(H5N1)-M2-45-62 mut48]”: the “cell-penetrating peptide function compared with the parent polypeptide (confocal imaging)” value in the test with A549 cells [3] is recorded as “stronger than that of the parent Jilin-2004(H5N1)-M2-45-62 polypeptide”. For the same sequence, the “ability to carry small RNA into cells compared with the transfection reagent RNAiMax group, qPCR” value with A549 cells [2] is “stronger than the transfection reagent RNAiMax group”.

Consider “RRFFFKCIYRRLKYGLKRGPST [Jilin-2004(H5N1)-M2-44-65 mut17]”, for which, in the test with A549 cells [2], the “ability to carry small RNA into cells compared with the transfection reagent RNAiMax group, qPCR” value is on record as “stronger than the transfection reagent RNAiMax group”. For the same sequence, in the test on 293T cells, the “cell-penetrating peptide function compared with the parent polypeptide” value was “stronger than that of the parent Jilin-2004(H5N1)-M2-44-65 polypeptide”.

“SLFFKCIYRRLKYGLKRG [Jilin-2004(H5N1)-M2-45-62 mut45]”: the “cell-penetrating peptide function compared with the parent polypeptide (confocal imaging)” value with A549 cells [3] was “stronger than that of the parent Jilin-2004(H5N1)-M2-45-62 polypeptide”. Moreover, the “ability to carry small RNA into cells compared with the transfection reagent RNAiMax group, qPCR” value in the test with A549 cells [2] was “stronger than the transfection reagent RNAiMax group”.

The values above are taken from patent publication US20220169680A1 (priority 2018, published 2022).
